Measured values from patent US20040260721A1, “Methods and systems for creation of a coherence database” (priority 2003, published 2004).
“Also recorded” adds a separate entry of the source.

Tests used:
[1] = test system: Saccharomyces cerevisiae; assay: Biochemical and gene expression profiling with pathway analysis of yeast treated with fungicidal drugs; format: cell-based; conditions: inhibitory dose; three replicate samples per drug; single harvest timepoint
Protocol: An experiment was performed to attempt to characterize four fungicidal drugs: Amphoteracin B, Ketaconazole, Fluconazole, and Posaconazole. Yeast samples (Saccharomyces cerevisiae) were treated with an inhibitory dose of each drug, using three replicate samples per drug, and harvested at a single timepoint. Biochemical profiling and gene expression profiling data were gathered on each yeast sample, and summarized and related to KEGG as described in Example 6.

[2] = test system: liver; assay: Biochemical profiling (LC/MS) of livers from rats dosed with acetaminophen; format: in vivo; conditions: rat liver
Protocol: Acetaminophen overdose is one of the leading causes of liver failure. In this experiment, rats were dosed with acetaminophen and livers were harvested across a time course. Two doses of acetaminophen were used (50 mg/kg and 1500 mg/kg), as well as a control group that received no acetaminophen. The harvest times were 6, 18, 24, and 48 hours. Three rats (biological replicates) were in each treatment group, wherein a treatment group is defined as each combination of dose and time. […] Still referring to FIG. 2, the information recorded in data tables 221, 223, and 224 could also be recorded in data tables 218 and 219 (time_summary_set, and tissue_summary_set), thus allowing comparison by time or tissue type.
The resulting liver samples were extracted and analyzed by biochemical profiling (BCP) using LC/MS in both positive and negative modes, yielding a biochemical profile containing intensities on more than 100 compounds. Three technical replicates of each rat liver were analyzed. […]
A summary set was created for each treatment group, and the experimental information associated with that treatment group (treatment, dosage, timepoint, baseline of comparison) was recorded in the coherence database. […] Comparing a treated group to a control group created summaries that were recorded in the treatment_summary_set data table (FIG. 2, table 217) of the coherence database schema. […]

Row | SMILES | comparison of pathway perturbations between treatments [1] | timepoint with most perturbed compounds (biochemical profile vs matched control) ([2]; 50 mg/kg and 1500 mg/kg, harvest at 6, 18, 24 and 48 hours) | pathway showing the primary metabolic disturbance ([2]; 18 hour timepoint, pathway viewing tool (KEGG))
1 | OC(Cn1cncn1)(Cn1cncn1)c1ccc(F)cc1F [Fluconazole] | perturbations that were unlike those of Amphoteracin B |  | 
2 | CC(=O)Nc1ccc(O)cc1 [acetaminophen] |  | more compounds were perturbed at the 18 hour timepoint than any other | nitrogen metabolism pathway was most likely the source of the primary metabolic disturbance
3 | CC[C@@H]([C@H](C)O)n1ncn(-c2ccc(N3CCN(c4ccc(OC[C@@H]5CO[C@@](Cn6cncn6)(c6ccc(F)cc6F)C5)cc4)CC3)cc2)c1=O [Posaconazole] | behaved most like Fluconazole; also recorded: perturbations that were unlike those of Amphoteracin B |  | 
